Reference: ChEMBL document CHEMBL3425423, “Hydroxy tricyclic 1,5-naphthyridinone oxabicyclooctane-linked novel bacterial topoisomerase inhibitors as broad-spectrum antibacterial agents-SAR of RHS moiety (Part-3)” (Bioorg Med Chem Lett, 2015)
In brackets after ≈: the same amount, converted by molar mass.

Key:
Type in all cases: functional
Escherichia coli = test: Antibacterial activity against Escherichia coli ATCC 25922; conditions: Escherichia coli, ATCC 25922; read-out: MIC
Staphylococcus aureus [1] = test: Antibacterial activity against Staphylococcus aureus Smith
Streptococcus pneumoniae = test: Antibacterial activity against Streptococcus pneumoniae IID554; conditions: Streptococcus pneumoniae, IID554; read-out: MIC
Enterococcus faecalis = test: Antibacterial activity against Enterococcus faecalis ATCC 29212; conditions: Enterococcus faecalis, ATCC 29212; read-out: MIC
Acinetobacter baumannii = test: Antibacterial activity against Acinetobacter baumannii IID876; conditions: Acinetobacter baumannii, IID876; read-out: MIC
Enterococcus faecium = test: Antibacterial activity against VanA-type vancomycin-resistant Enterococcus faecium A2373; conditions: Enterococcus faecium, A2373; read-out: MIC
Pseudomonas aeruginosa = test: Antibacterial activity against Pseudomonas aeruginosa PAO1; conditions: Pseudomonas aeruginosa, PAO1; read-out: MIC
Staphylococcus aureus [2] = test: Ratio of MIC for quinolone-resistant Staphylococcus aureus MS5935 to MIC for quinolone-sensitive Staphylococcus aureus
Moraxella catarrhalis = test: Antibacterial activity against Moraxella catarrhalis ATCC 25238; conditions: Moraxella catarrhalis, ATCC 25238; read-out: MIC
[3] = Staphylococcus aureus, Smith, read-out: MIC

| SMILES | MIC (Escherichia coli) [µg/mL] | MIC (Staphylococcus aureus [1]; [3]) [µg/mL] | MIC (Streptococcus pneumoniae) [µg/mL] | MIC (Enterococcus faecalis) [µg/mL] | MIC (Acinetobacter baumannii) [µg/mL] | MIC (Enterococcus faecium) [µg/mL] | MIC (Pseudomonas aeruginosa) [µg/mL] | Ratio (Staphylococcus aureus [2]) | MIC (Staphylococcus aureus [1]) [µg/mL] | MIC (Moraxella catarrhalis) [µg/mL] |
| --- | --- | --- | --- | --- | --- | --- | --- | --- | --- | --- |
| O=C1CSc2ccc(CNC34CCC(C[C@]5(O)Cn6c(=O)ccc7ncc(F)c5c76)(CC3)OC4)nc2N1 | 4 (≈ 7.64 µM) | 0.25 (≈ 0.477 µM) | 0.5 (≈ 0.955 µM) | 2 (≈ 3.82 µM) | 2 (≈ 3.82 µM) | 8 (≈ 15.3 µM) | 16 (≈ 30.6 µM) | – | – | – |
| O=C1COc2cnc(CNC34CCC(C[C@]5(O)Cn6c(=O)ccc7ncc(F)c5c76)(CC3)OC4)cc2N1 | 16 (≈ 31.5 µM) | 4 (≈ 7.88 µM) | 4 (≈ 7.88 µM) | 8 (≈ 15.8 µM) | 32 (≈ 63.1 µM) | 32 (≈ 63.1 µM) | 32 (≈ 63.1 µM) | – | – | – |
| O=C1COc2ccc(CNC34CCC(C[C@]5(O)Cn6c(=O)ccc7ncc(F)c5c76)(CC3)OC4)cc2N1 | 6 (≈ 11.8 µM) | 1.5 (≈ 2.96 µM) | 1 (≈ 1.97 µM) | 4 (≈ 7.9 µM) | 8 (≈ 15.8 µM) | 16 (≈ 31.6 µM) | 16 (≈ 31.6 µM) | – | – | – |
| O=C1COc2ccc(C(=O)NC34CCC(C[C@]5(O)Cn6c(=O)ccc7ncc(F)c5c76)(CC3)OC4)nc2N1 | 32 (≈ 61.4 µM) | 1 (≈ 1.92 µM) | 4 (≈ 7.67 µM) | 8 (≈ 15.3 µM) | 16 (≈ 30.7 µM) | 16 (≈ 30.7 µM) | 32 (≈ 61.4 µM) | <4 | 0.25 (≈ 0.479 µM) | – |
| O=c1ccc2ncc(F)c3c2n1C[C@@]3(O)CC12CCC(NCc3ncc4c(c3Cl)OCCO4)(CC1)CO2 | 32 (≈ 60.5 µM) | 2 (≈ 3.78 µM) | 1 (≈ 1.89 µM) | 8 (≈ 15.1 µM) | 32 (≈ 60.5 µM) | 32 (≈ 60.5 µM) | 32 (≈ 60.5 µM) | – | – | 32 (≈ 60.5 µM) |
| O=c1ccc2ncc(F)c3c2n1C[C@@]3(O)CC12CCC(NCc3ccc4c(n3)OCCO4)(CC1)CO2 | 32 (≈ 64.7 µM) | 2 (≈ 4.04 µM) | 2 (≈ 4.04 µM) | 8 (≈ 16.2 µM) | 32 (≈ 64.7 µM) | 32 (≈ 64.7 µM) | 32 (≈ 64.7 µM) | – | – | 32 (≈ 64.7 µM) |
| O=c1ccc2ncc(F)c3c2n1C[C@@]3(O)CC12CCC(NCc3ccc4c(c3)OCCO4)(CC1)CO2 | 16 (≈ 32.4 µM) | 0.12 (≈ 0.243 µM) | 0.25 (≈ 0.507 µM) | 2 (≈ 4.05 µM) | 4 (≈ 8.1 µM) | 4 (≈ 8.1 µM) | 32 (≈ 64.8 µM) | – | – | 0.5 (≈ 1.01 µM) |
| O=c1ccc2ncc(F)c3c2n1C[C@@]3(O)CC12CCC(NCc3cc4c(cc3F)OCCO4)(CC1)CO2 | 32 (≈ 62.6 µM) | 0.25 (≈ 0.489 µM) | 0.5 (≈ 0.977 µM) | 2 (≈ 3.91 µM) | 8 (≈ 15.6 µM) | 8 (≈ 15.6 µM) | 32 (≈ 62.6 µM) | – | – | 8 (≈ 15.6 µM) |
| O=c1ccc2ncc(F)c3c2n1C[C@@]3(O)CC12CCC(NCc3cc(Cl)c4c(c3Cl)OCCO4)(CC1)CO2 | 32 (≈ 56.9 µM) | 0.5 (≈ 0.889 µM) | 0.25 (≈ 0.445 µM) | 4 (≈ 7.11 µM) | 32 (≈ 56.9 µM) | 16 (≈ 28.4 µM) | 32 (≈ 56.9 µM) | – | – | 2 (≈ 3.56 µM) |
| O=c1ccc2ncc(F)c3c2n1C[C@@]3(O)CC12CCC(NCc3ccc4c(n3)NCCO4)(CC1)CO2 | 32 (≈ 64.8 µM) | 2 (≈ 4.05 µM) | 1 (≈ 2.03 µM) | 8 (≈ 16.2 µM) | 8 (≈ 16.2 µM) | 16 (≈ 32.4 µM) | 32 (≈ 64.8 µM) | – | – | 4 (≈ 8.1 µM) |
| O=c1ccc2ncc(F)c3c2n1C[C@@]3(O)CC12CCC(NCc3ccc4c(c3)OCO4)(CC1)CO2 | 32 (≈ 66.7 µM) | 0.5 (≈ 1.04 µM) | 0.5 (≈ 1.04 µM) | 4 (≈ 8.34 µM) | 4 (≈ 8.34 µM) | 16 (≈ 33.4 µM) | 32 (≈ 66.7 µM) | – | – | 4 (≈ 8.34 µM) |
| O=c1ccc2ncc(F)c3c2n1C[C@@]3(O)CC12CCC(NCc3ccc4c(c3)OC(F)(F)O4)(CC1)CO2 | 32 (≈ 62.1 µM) | 0.25 (≈ 0.485 µM) | 1 (≈ 1.94 µM) | 8 (≈ 15.5 µM) | 32 (≈ 62.1 µM) | 32 (≈ 62.1 µM) | 32 (≈ 62.1 µM) | – | – | 4 (≈ 7.76 µM) |
| O=c1ccc2ncc(F)c3c2n1C[C@@]3(O)CC12CCC(NC/C=C/c3cc(F)ccc3F)(CC1)CO2 | 4 (≈ 8.04 µM) | 0.063 (≈ 0.127 µM) | 0.25 (≈ 0.502 µM) | 4 (≈ 8.04 µM) | 0.25 (≈ 0.502 µM) | 8 (≈ 16.1 µM) | 8 (≈ 16.1 µM) | <4 | – | – |
| O=c1ccc2ncc(F)c3c2n1C[C@@]3(O)CC12CCC(NC/C=C/c3ccc(F)cc3)(CC1)CO2 | 64 (≈ 133 µM) | 0.5 (≈ 1.04 µM) | 4 (≈ 8.34 µM) | 16 (≈ 33.4 µM) | 32 (≈ 66.7 µM) | 32 (≈ 66.7 µM) | 64 (≈ 133 µM) | – | – | – |
| O=c1ccc2ncc(F)c3c2n1C[C@@]3(O)CC12CCC(NC/C(F)=C\c3cc(F)ccc3F)(CC1)CO2 | 16 (≈ 31 µM) | 0.25 (≈ 0.485 µM) | 1 (≈ 1.94 µM) | 4 (≈ 7.76 µM) | 16 (≈ 31 µM) | 16 (≈ 31 µM) | 16 (≈ 31 µM) | <4 | – | – |
| O=c1ccc2ncc(F)c3c2n1C[C@@]3(O)CC12CCC(NC/C(F)=C/c3cc(F)ccc3F)(CC1)CO2 | 16 (≈ 31 µM) | 4 (≈ 7.76 µM) | 8 (≈ 15.5 µM) | 16 (≈ 31 µM) | 16 (≈ 31 µM) | 16 (≈ 31 µM) | 16 (≈ 31 µM) | <4 | – | – |
| O=c1ccc2ncc(F)c3c2n1C[C@@]3(O)CC12CCC(NC/C=C/c3ccccc3)(CC1)CO2 | 32 (≈ 69.3 µM) | 0.125 (≈ 0.271 µM) | 0.5 (≈ 1.08 µM) | 4 (≈ 8.67 µM) | 4 (≈ 8.67 µM) | 8 (≈ 17.3 µM) | 64 (≈ 139 µM) | – | – | – |
| O=c1ccc2ncc(F)c3c2n1C[C@@]3(O)CC12CCC(NC/C=C/c3ccccn3)(CC1)CO2 | 64 (≈ 138 µM) | 1 (≈ 2.16 µM) | 4 (≈ 8.65 µM) | 32 (≈ 69.2 µM) | 32 (≈ 69.2 µM) | 64 (≈ 138 µM) | 64 (≈ 138 µM) | <4 | – | – |
| O=c1ccc2ncc(F)c3c2n1C[C@@]3(O)CC12CCC(NCCCc3cc(F)ccc3F)(CC1)CO2 | 16 (≈ 32 µM) | 0.5 (≈ 1 µM) | 1 (≈ 2 µM) | 16 (≈ 32 µM) | 2 (≈ 4 µM) | 32 (≈ 64.1 µM) | 32 (≈ 64.1 µM) | <4 | – | – |
| O=c1ccc2ncc(F)c3c2n1C[C@@]3(O)CC12CCC(NCOc3cc(F)ccc3F)(CC1)CO2 | 32 (≈ 65.6 µM) | 1 (≈ 2.05 µM) | 2 (≈ 4.1 µM) | 16 (≈ 32.8 µM) | 4 (≈ 8.21 µM) | 32 (≈ 65.6 µM) | 64 (≈ 131 µM) | <4 | – | – |
| O=c1ccc2ncc(F)c3c2n1C[C@@]3(O)CC12CCC(NCc3cc(-c4cccs4)on3)(CC1)CO2 | 16 (≈ 31.5 µM) | 0.25 (≈ 0.492 µM) | 0.5 (≈ 0.983 µM) | 2 (≈ 3.93 µM) | 16 (≈ 31.5 µM) | 16 (≈ 31.5 µM) | 16 (≈ 31.5 µM) | <4 | – | – |
| O=c1cnc2ccc(CNC34CCC(C[C@]5(O)Cn6c(=O)ccc7ncc(F)c5c76)(CC3)OC4)nc2[nH]1 | 32 (≈ 63.4 µM) | 8 (≈ 15.9 µM) | 16 (≈ 31.7 µM) | 32 (≈ 63.4 µM) | 32 (≈ 63.4 µM) | 32 (≈ 63.4 µM) | 32 (≈ 63.4 µM) | <4 | – | – |
| COc1ccc2nc(CNC34CCC(C[C@]5(O)Cn6c(=O)ccc7ncc(F)c5c76)(CC3)OC4)c(F)cc2n1 | 16 (≈ 29.9 µM) | 16 (≈ 29.9 µM) | 16 (≈ 29.9 µM) | 16 (≈ 29.9 µM) | 16 (≈ 29.9 µM) | 16 (≈ 29.9 µM) | 16 (≈ 29.9 µM) | <4 | – | – |
| Cn1c(=O)c(CNC23CCC(C[C@]4(O)Cn5c(=O)ccc6ncc(F)c4c65)(CC2)OC3)cc2ccccc21 | 64 (≈ 124 µM) | 16 (≈ 31 µM) | 8 (≈ 15.5 µM) | 64 (≈ 124 µM) | 64 (≈ 124 µM) | 64 (≈ 124 µM) | 64 (≈ 124 µM) | <4 | – | – |
| O=c1[nH]c2c(F)ccc(F)c2cc1CNC12CCC(C[C@]3(O)Cn4c(=O)ccc5ncc(F)c3c54)(CC1)OC2 | 64 (≈ 119 µM) | 2 (≈ 3.71 µM) | 2 (≈ 3.71 µM) | 32 (≈ 59.4 µM) | 64 (≈ 119 µM) | 64 (≈ 119 µM) | 64 (≈ 119 µM) | <4 | – | – |
